{
  "source": "paper PMC8844856",
  "about": "“Structural basis of cyclic oligoadenylate binding to the transcription factor Csa3 outlines cross talk between type III and type I CRISPR systems” (The Journal of Biological Chemistry, 2022)",
  "key": {"His6-Csa3Sso (WT) [1]": {"target": "T1, His6-Csa3Sso (WT) (Saccharolobus solfataricus, UniProt Q97Y88)", "T1 construct": "made in house; host or cells: E. coli BL21(DE3)-pLysS", "T1 sequence (Q97Y88 1-237)": "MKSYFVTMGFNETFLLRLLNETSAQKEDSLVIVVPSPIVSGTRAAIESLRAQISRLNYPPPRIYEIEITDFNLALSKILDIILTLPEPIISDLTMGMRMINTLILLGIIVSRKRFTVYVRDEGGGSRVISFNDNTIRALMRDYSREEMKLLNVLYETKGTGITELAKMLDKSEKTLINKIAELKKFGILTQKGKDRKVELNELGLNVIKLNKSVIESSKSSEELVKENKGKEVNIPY", "test": "Microscale thermophoresis (MST) binding of cOA ligands to wildtype Csa3Sso", "protocol": "(§1) The ligand-binding specificity of Csa3Sso (WT) and the role of Csa3Sso residues in ligand binding were determined by microscale Thermophoresis (MST). Wildtype or mutant His6-Csa3Sso (200 nM) was fluorescently labeled in 2× binding buffer (10 mM Na/K phosphate, pH 5.8, 10 mM MgCl2, 25 mM NaCl, and 0.05% Tween 20) using 100 nM RED-Tris NTA His-Tag labeling dye (Nanotemper Technologies, Inc) and incubated in the dark at room temperature for 30 min. Two millimolar stocks of synthetic ligands including cA3, cA4, and cA6 (Biolog Life Science Institute) or linear ribonucleotide 5′-rCrArArArA-3′ (Bio-Synthesis Inc) were serially diluted in a 1:1 ratio with nuclease-free water. The labeled proteins were then mixed with ligands in a 1:1 ratio. Only cA4 was used in the MST experiments with the Csa3Sso mutants (2 mM stocks of cA4 were used for F10A, F14A, G96A, and R98A mutants, and 20 μM stocks were used for E122A and E122Q mutants). The mixtures of proteins and ligands were incubated in the dark at room temperature for 30 min. The precipitated material was removed by centrifugation at 6000 rpm for 5 min. The supernatants were then loaded into Monolith NT.115 Series Premium capillaries in triplicate, and the thermophoresis was detected with 40% excitation power and 40% IR-laser power for an on-time of 20 s at 25 °C.\n(§2) The binding affinities of oligonucleotides and PCas4a to Csa3Sso (WT and mutants) were analyzed according to the law of mass action in a standard fitting mode of MO.Affinity analysis software (version 2.3)."}, "Csa3bSis": {"target": "Csa3bSis", "set-up": "method as in PMID 32983033", "settings": "surface plasmon resonance; cited from earlier work"}, "[2]": {"tested_on": "Csa3bSis binding to the Pcsa1 promoter", "set-up": "method as in PMID 32983033", "settings": "in the presence of the cA4 analog in vitro; cited from earlier work"}, "His6-Csa3Sso (WT) [3]": {"target": "T1, His6-Csa3Sso (WT)", "test": "MST binding of PCas4a promoter DNA to Csa3Sso with or without cOAs", "settings": "50-fold excess of cOA (25 μM)", "protocol": "The MST experiment and data analysis for ligand-induced changes in Csa3Sso binding affinity with PCas4a was performed as mentioned above except for the following: 1 μM of His6-Csa3Sso (WT) was fluorescently labeled in 2× binding buffer with 40 nM RED-Tris NTA His-Tag labeling dye in the absence or presence of cA4 or cA6. The labeling mixtures were incubated in the dark at room temperature for 30 min. A 50 μM stock of PCas4a was serially diluted in 1:1 ratios with nuclease-free water. The labeled proteins ± ligands were then mixed with diluted PCas4a in a 1:1 ratio and incubated in the dark at room temperature for 30 min. The supernatants obtained after removal of precipitated material were then loaded into Monolith NT.115 Series Premium capillaries in triplicate, and the thermophoresis was detected with 100% excitation power and 60% IR-laser power for an on-time of 20 s at 25 °C.\nas §2"}, "Csa3Sso F10A mutant": {"target": "T2, Csa3Sso F10A mutant (Saccharolobus solfataricus, UniProt Q97Y88, F10A)", "T2 construct": "made in house; host or cells: E. coli BL21(DE3)-pLysS (pET21b)", "T2 sequence (Q97Y88 whole entry F10A)": "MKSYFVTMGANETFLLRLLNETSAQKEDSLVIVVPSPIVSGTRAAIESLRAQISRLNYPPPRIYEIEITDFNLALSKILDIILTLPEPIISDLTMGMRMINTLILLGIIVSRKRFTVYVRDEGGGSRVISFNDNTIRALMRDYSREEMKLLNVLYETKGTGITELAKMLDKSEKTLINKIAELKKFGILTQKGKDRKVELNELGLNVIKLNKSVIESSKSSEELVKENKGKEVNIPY", "test": "MST binding of cA4 to Csa3Sso F10A mutant", "settings": "Fig. 4E", "protocol": "as §1, with “The mixtures of proteins and ligands were incubated in the dark at room temperature for 30 min. The precipitated material was removed by centrifugation at 6000 rpm for 5 min.” left out\nas §2"}, "Csa3Sso": {"target": "T3, Csa3Sso (Saccharolobus solfataricus, UniProt Q97Y88)", "T3 construct": "made in house; host or cells: E. coli BL21(DE3)-pLysS", "T3 sequence (Q97Y88 1-237)": "T1 sequence (Q97Y88 1-237)", "test": "Ring nuclease activity assay (C18 HPLC), wildtype Csa3Sso", "assay_type": "biochemical", "settings": "3 h", "protocol": "(§3) […]. The reaction mixtures were deproteinized by ultrafiltration with an Amicon Ultra 3 kDa cutoff centrifugal filter (Millipore). […]. For both conditions, the products and controls were collected and analyzed with High Performance Liquid Chromatography system (UltiMate 3000, Thermo Scientific) equipped with the C18 column (4.6 × 100 mm, […], Thermo Scientific) and C18 column, (15 cm × 4.6 mm, […], Supelco), for the first and second conditions, respectively."}, "Csa3Sso–PCas4a complex": {"target": "Csa3Sso–PCas4a complex (Saccharolobus solfataricus, UniProt Q97Y88)", "procedure": "Top and bottom DNA oligonucleotide strands used for EMSA were purchased from Sigma-Aldrich (Table S2). The oligonucleotide strands were annealed by mixing them in 1:1 molar ratio followed by heating at 98 °C for the unlabeled, or 70 °C for the Cy5-labeled, DNA fragments for 15 min. Slow cooling to room temperature was used to anneal the fragments. Unlabeled probe-containing samples used for Fig. S8C were electrophoresed using a 2% (w/v) agarose Tris-Borate-EDTA (TBE) gel at 100 V for 30 min at room temperature. Probes were stained with ethidium bromide and visualized using Gel Doc XR+ Molecular Imager (Bio-Rad). […] The Cy5-labeled probes were electrophoresed in a 5% acrylamide TBE gel at 100 V for 1 h at 4 °C. DNA bands were visualized using FluorChem R gel imager (Protein Simple, Inc)."}, "[4]": {"target": "Treponema succinifaciens Card1", "set-up": "method as in PMID 33461211", "settings": "cited from earlier work"}, "[5]": {"target": "T4, Csa3Sso–PCas4a complex precipitates (Saccharolobus solfataricus, UniProt Q97Y88)", "T4 construct": "made in house; host or cells: E. coli BL21(DE3)-pLysS", "T4 sequence (Q97Y88 1-237)": "T1 sequence (Q97Y88 1-237)", "test": "Visual precipitation of Csa3Sso–PCas4a complexes in tubes, wildtype", "settings": "50 μM Csa3Sso WT, 10 μM PCas4a, 500 μM cA4, 30 min, 20 °C", "excerpt": "(§4) […]. The DNA fragment docked onto protomer A in the cA4-bound Csa3Sso dimer sterically clashed with a region in the CARF domain from protomer B in this dimer (encircled by a red dotted circle). […] To obtain these models, wHTH domains of B. subtilis OhrR (PDB code: 1Z9C ([71]), RMSD: 1.7 Å) were individually superimposed onto wHTH domains of the Csa3Sso dimer and OhrR was omitted from the view for clarity. A single and straight model of B-form DNA with two copies of the palindromes could not be modeled with the apo Csa3Sso dimer owing to a slight misorientation (not shown) between Csa3Sso wHTH domains (possibly requiring a bend in the DNA). B, precipitation of Csa3Sso in the presence of PCas4a DNA and its solubilization by cA4 binding to the Csa3Sso CARF domain. […]. Cy5-labeled PCas4a, 50 nM, was added to different Csa3Sso concentrations ranging from 500 nM to 25 μM in the presence or absence of cA4 added in a 50:1 ratio of cA4:Csa3Sso. […]."}, "Csa3Sso R98A mutant": {"target": "T5, Csa3Sso R98A mutant (Saccharolobus solfataricus, UniProt Q97Y88, R98A)", "T5 construct": "made in house; host or cells: E. coli BL21(DE3)-pLysS (pBB75)", "T5 sequence (Q97Y88 whole entry R98A)": "as the sequence (Q97Y88 whole entry F10A) above, with A10F, R98A counted along it", "test": "MST binding of cA4 to Csa3Sso R98A mutant", "settings": "Fig. 4E", "protocol": "as §1, with “The mixtures of proteins and ligands were incubated in the dark at room temperature for 30 min. The precipitated material was removed by centrifugation at 6000 rpm for 5 min.” left out\nas §2"}, "Csa3Sso-E122Q": {"target": "T6, Csa3Sso-E122Q (Saccharolobus solfataricus, UniProt Q97Y88, E122Q)", "T6 construct": "made in house; host or cells: E. coli BL21(DE3)-pLysS (pET21b)", "T6 sequence (Q97Y88 whole entry E122Q)": "as the sequence (Q97Y88 whole entry F10A) above, with A10F, E122Q counted along it", "test": "Ring nuclease activity assay (C18 HPLC), Csa3Sso-E122Q", "assay_type": "biochemical", "settings": "5 μM E122Q mutant, 500 μM cA4, 60 °C, 3 h, Fig. S5C", "protocol": "as §3"}, "Csa3Sso-E122A": {"target": "T7, Csa3Sso-E122A (Saccharolobus solfataricus, UniProt Q97Y88, E122A)", "T7 construct": "made in house; host or cells: E. coli BL21(DE3)-pLysS (pET21b)", "T7 sequence (Q97Y88 whole entry E122A)": "as the sequence (Q97Y88 whole entry F10A) above, with A10F, E122A counted along it", "test": "Ring nuclease activity assay (C18 HPLC), Csa3Sso-E122A", "assay_type": "biochemical", "settings": "5 μM E122A mutant, 500 μM cA4, 60 °C, 3 h, Fig. S5C", "protocol": "as §3"}, "Csa3Sso G96A mutant": {"target": "T8, Csa3Sso G96A mutant (Saccharolobus solfataricus, UniProt Q97Y88, G96A)", "T8 construct": "made in house; host or cells: E. coli BL21(DE3)-pLysS (pET21b)", "T8 sequence (Q97Y88 whole entry G96A)": "as the sequence (Q97Y88 whole entry F10A) above, with A10F, G96A counted along it", "test": "MST binding of cA4 to Csa3Sso G96A mutant", "settings": "Fig. 4E", "protocol": "as §1, with “The mixtures of proteins and ligands were incubated in the dark at room temperature for 30 min. The precipitated material was removed by centrifugation at 6000 rpm for 5 min.” left out\nas §2"}, "[6]": {"target": "T9, Csa3Sso-R98A mutant with PCas4a DNA (Saccharolobus solfataricus, UniProt Q97Y88, R98A)", "T9 construct": "made in house; host or cells: E. coli BL21(DE3)-pLysS (pBB75)", "T9 sequence (Q97Y88 whole entry R98A)": "as the sequence (Q97Y88 whole entry F10A) above, with A10F, R98A counted along it", "test": "Visual precipitation of Csa3Sso-R98A with PCas4a DNA in tubes", "settings": "50 μM Csa3Sso R98A, 10 μM PCas4a, 500 μM cA4, 30 min, 20 °C", "excerpt": "as §4"}, "Csa3Sso F14A mutant": {"target": "T10, Csa3Sso F14A mutant (Saccharolobus solfataricus, UniProt Q97Y88, F14A)", "T10 construct": "made in house; host or cells: E. coli BL21(DE3)-pLysS (pET21b)", "T10 sequence (Q97Y88 whole entry F14A)": "as the sequence (Q97Y88 whole entry F10A) above, with A10F, F14A counted along it", "test": "MST binding of cA4 to Csa3Sso F14A mutant", "settings": "Fig. 4E", "protocol": "as §1, with “The mixtures of proteins and ligands were incubated in the dark at room temperature for 30 min. The precipitated material was removed by centrifugation at 6000 rpm for 5 min.” left out\nas §2"}},
  "note": "Entries after “also recorded” stand apart in the source; their conditions may differ.",
  "data": [
    {"molecule": "5′-rCrArArArA-3′ [5′CAAAA3′]", "values": [
      {"measurement": "specific binding to His6-Csa3Sso", "setting": "His6-Csa3Sso (WT) [1]; MST", "value": "only cA4 exhibited a specific low micromolar binding"},
      {"measurement": "Kd", "setting": "Csa3bSis", "value": "46.1 ± 8.14", "unit": "µM"},
      {"measurement": "fold increase in Csa3bSis binding affinity to the Pcsa1 promoter", "setting": "[2]", "value": "~10", "unit": "fold"}
    ]},
    {"molecule": "Nc1ncnc2c1ncn2[C@@H]1O[C@@H]2COP(=O)(O)O[C@H]3[C@@H](O)[C@H](n4cnc5c(N)ncnc54)O[C@@H]3COP(=O)(O)O[C@H]3[C@@H](O)[C@H](n4cnc5c(N)ncnc54)O[C@@H]3COP(=O)(O)O[C@H]3[C@@H](O)[C@H](n4cnc5c(N)ncnc54)O[C@@H]3COP(=O)(O)O[C@H]2[C@H]1O", "note": "[cA4, cyclic tetra-adenylate]", "values": [
      {"measurement": "fold stronger binding of His6-Csa3Sso to cA4 than Csa3bSis to the linear cA4 analog", "setting": "His6-Csa3Sso (WT) [1]; MST KD vs SPR KD of ref 57", "value": 8, "unit": "fold"},
      {"measurement": "effect of excess cOA on PCas4a binding affinity of Csa3Sso", "setting": "His6-Csa3Sso (WT) [3]", "value": "no significant effect; also recorded: did not significantly change"},
      {"measurement": "cA4 binding", "setting": "Csa3Sso F10A mutant", "value": "complete loss of cA4 binding"},
      {"measurement": "cA4 hydrolysis (ring nuclease activity)", "setting": "Csa3Sso; 5 μM Csa3Sso, 500 μM cA4, buffer G, 60 °C, Fig. 6", "value": "no sign of cA4 hydrolysis products; also recorded: No changes in the time-dependent stability of cA4"},
      {"measurement": "cA4 hydrolysis (ring nuclease activity)", "setting": "Csa3Sso; 50 µM Csa3Sso, 250 µM cA4, buffer G or binding buffer, 55 °C, Fig. S5 A, B", "value": "No changes"},
      {"measurement": "effect on levels of soluble Csa3Sso–DNA complex (shifted band)", "setting": "Csa3Sso–PCas4a complex", "value": "no effect"},
      {"measurement": "Kd", "setting": "[4]", "value": 0.015, "unit": "µM"},
      {"measurement": "effect on formation of Csa3Sso–PCas4a complex precipitates", "setting": "[5]", "value": "prevented their formation"},
      {"measurement": "cA4 binding", "setting": "Csa3Sso R98A mutant", "value": "completely lost cA4 binding"},
      {"measurement": "cA4 hydrolysis (ring nuclease activity)", "setting": "Csa3Sso-E122Q", "value": "did not exhibit any gain of ring nuclease activity; also recorded: no ring nuclease activity was observed"},
      {"measurement": "cA4 hydrolysis (ring nuclease activity)", "setting": "Csa3Sso-E122A", "value": "did not exhibit any gain of ring nuclease activity; also recorded: no ring nuclease activity was observed"},
      {"measurement": "cA4 binding", "setting": "Csa3Sso G96A mutant", "value": "completely lost the ability to bind cA4"},
      {"measurement": "rescue of Csa3Sso-R98A from precipitating with DNA", "setting": "[6]", "value": "could not rescue"},
      {"measurement": "cA4 binding", "setting": "Csa3Sso F14A mutant", "value": "complete loss of cA4 binding"}
    ]}
  ]
}
